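Five concentrations, 48 hours, 96-well plates. TGI: concentration producing complete growth inhibition.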
How the values were obtained:
Test in all cases: growth of human tumour cells (NCI), 48 h
[1] = system: PC-3 prostate
[2] = system: NCI-H226 lung
[3] = system: HOP-92 NSCLC
[4] = system: NCI/ADR-RES ovarian
[5] = system: RXF 393 renal
[6] = system: BT-549 breast
[7] = system: MOLT-4 leukemia
[8] = system: SNB-19 CNS
[9] = system: MDA-N
[10] = system: DU-145 prostate
[11] = system: TK-10 renal
[12] = system: MDA-MB-231 breast
[13] = system: SN12C renal
[14] = system: OVCAR-4 ovarian
[15] = system: UO-31 renal
[16] = system: MCF7 breast
[17] = system: NCI-H460 lung
[18] = system: SR leukemia
[19] = system: COLO 205 colon
[20] = system: HT29 colon
[21] = system: MDA-MB-435
[22] = system: OVCAR-8 ovarian
[23] = system: NCI-H522 lung
[24] = system: OVCAR-5 ovarian
[25] = system: SW-620 colon
[26] = system: LOX IMVI melanoma
[27] = system: K-562 leukemia
[28] = system: HS 578T breast
[29] = system: HL-60(TB) leukemia
[30] = system: CCRF-CEM leukemia
[31] = system: HCT-116 colon
[32] = system: ACHN renal
[33] = system: A498 renal
[34] = system: UACC-62 melanoma
[35] = system: SF-539 CNS
[36] = system: KM12 colon
[37] = system: UACC-257 melanoma
[38] = system: SF-295 CNS
[39] = system: HOP-62 NSCLC
[40] = system: RPMI-8226 leukemia
[41] = system: HCT-15 colon
[42] = system: U251 CNS
[43] = system: T-47D breast
[44] = system: MALME-3M melanoma
[45] = system: IGROV1 ovarian
[46] = system: SK-MEL-5 melanoma
[47] = system: SK-OV-3 ovarian
[48] = system: 786-0 renal
[49] = system: HCC-2998 colon
[50] = system: SK-MEL-28 melanoma
[51] = system: CAKI-1 renal
[52] = system: EKVX NSCLC
[53] = system: SK-MEL-2 melanoma
[54] = system: A549 NSCLC
[55] = system: SF-268 CNS
[56] = system: OVCAR-3 ovarian
[57] = system: M14 melanoma
[58] = system: NCI-H23 lung

For O=C(CCc1ccc(O)c(O)c1)OCCc1ccccc1, the TGI [1] was over 100 µM, the TGI [2] was over 100 µM and the TGI [3] was over 100 µM. The TGI [4] was over 100 µM, the TGI [5] was over 100 µM and the TGI [6] was over 100 µM. The TGI [7] was over 83.4 µM, the TGI [8] was over 100 µM and the TGI [9] was 30.4 µM. The TGI [10] was over 100 µM, the TGI [11] was over 100 µM and the TGI [12] was over 100 µM. The TGI [13] was over 100 µM, the TGI [14] was over 65.6 µM and the TGI [15] was over 100 µM. It also gave a TGI [16] of over 100 µM, a TGI [17] of over 100 µM and a TGI [18] of over 78.2 µM. The TGI [19] was over 100 µM, the TGI [20] was over 100 µM and the TGI [21] was 40.6 µM. The TGI [22] was over 100 µM, the TGI [23] was 17.8 µM and the TGI [24] was over 100 µM. The TGI [25] was over 62.2 µM, the TGI [26] was 54.8 µM and the TGI [27] was over 57.5 µM. For the same compound, the TGI [28] was over 100 µM, the TGI [29] was 17.3 µM and the TGI [30] was 76.3 µM. It also gave a TGI [31] of over 100 µM, a TGI [32] of over 100 µM and a TGI [33] of over 100 µM. The TGI [34] was over 100 µM, the TGI [35] was 54.5 µM and the TGI [36] was over 100 µM. For the same compound, the TGI [37] was over 100 µM, the TGI [38] was over 100 µM and the TGI [39] was over 31.6 µM. The TGI [40] was over 86.6 µM, the TGI [41] was over 100 µM and the TGI [42] was over 100 µM. The TGI [43] was over 100 µM, the TGI [44] was over 100 µM and the TGI [45] was over 100 µM. For the same compound, the TGI [46] was over 100 µM, the TGI [47] was over 100 µM and the TGI [48] was over 100 µM. It also gave a TGI [49] of over 100 µM, a TGI [50] of over 100 µM and a TGI [51] of over 100 µM. For the same compound, the TGI [52] was over 100 µM, the TGI [53] was over 100 µM and the TGI [54] was over 100 µM. It also gave a TGI [55] of over 100 µM, a TGI [56] of over 100 µM and a TGI [57] of over 100 µM. It also gave a TGI [58] of over 100 µM.

From PubChem BioAssay (NCI)
